{
  "source": "patent US11046701B2",
  "about": "“Salt of cetagliptin, preparation method thereof, pharmaceutical composition, and use thereof” (CGENETECH (SUZHOU, CHINA) CO., LTD., priority 2018, dated 2021)",
  "key": {"[1]": {"experiment": "Rough solubility of the amorphous phosphate in solvents", "format": "physicochemical", "settings": "thermodynamic from solid", "procedure": "The rough solubility of the amorphous phosphate prepared in Example 1 was measured. During the test, about 2 mg of the amorphous phosphate prepared in Example 1 was weighed and put into a 3 mL glass bottle, the solvents listed in the following Table 8 were added separately at an amount of 20 microliters/each time, and it was observed whether the sample was completely dissolved. If the sample was still not dissolved completely after 2.0 mL of the solvents was added, the test ended."}, "[2]": {"experiment": "PK/PD experiment of ICR mice: plasma concentration", "format": "in vivo, CD-1 (ICR) mice", "settings": "CD-1 (ICR), mouse, oral dose 3 mg/kg", "procedure": "(§1) Experimental animals: CD-1 (ICR) mice aged for 4 weeks and weighed for about 18-22 g.\n(§2) Grouping and administration scheme: the mice were fed adaptively, randomly grouped according to the weight on the day before experiment, and fasted overnight. […] After the experimental grouping, the group provided separately for detecting the initial basic value of DPPIV was carried out blood sampling, and other animals were intragastrically administrated with the drug at an administration volume of 10 mL/kg, the blood was sampled after the administration, and all other animals were stimulated with glucose administration; the blood was sampled at 20 min, 40 min, 60 min and 120 min after the glucose administration, respectively, and the plasma concentration and the DPPIV activity were detected by using plasma.\nResearch on pharmacodynamics-plasma concentration correlation: blood samples were collected at time points of 1 h, 1.33 h, 1.67 h, 2 h and 3 h after administration, and the plasma concentration was measured. The drug exposure value (AUCeff0-3h) of the DPPIV-P1 increased with the increase of dose, which was 16.09 ng·h/mL, 52.65 ng·h/mL, 162.3 ng·h/mL and 542.28 ng·h/mL, respectively."}, "[3]": {"experiment": "Long-term administration on DIO mice: weight, food intake, tolerance", "method": "(§3) A solution with a certain concentration was prepared from the crystal form B of the phosphate, and the administration volume was 10 mL/kg.\n(§4) Experimental animals: C57BL16 mice aged for 5 weeks and weighed for about 13-16 g.\n(§5) Grouping and administration scheme: the mice were fed adaptively and divided into a normal control group and a model group which were fed with high-fat feed (Research diets, D 12492). When the fasting blood glucose of the mice was greater than or equal to 7 mM, it was considered that the mice had become DIO mice. The DIO mice could be selected for the hypoglycemic effect test. The DIO mice were stratified and randomly grouped according to the blood glucose and the weight. […] The weight and the fasting blood glucose were measured weekly; the food amount, the remaining food amount and the food intake were recorded; the mice were fasted overnight at the end of administration, the blood was sampled, and the free fatty acid (NEFA), total cholesterol (TCHO), triglyceride (TG), insulin and DPPIV activity were measured by using serum."}, "[4]": {"experiment": "Weight of ICR mice of each group", "format": "in vivo, CD-1 (ICR) mice", "settings": "individual animals, 3 mg/kg group, 3 mg/kg", "procedure": "as §1, §2"}, "[5]": {"system": "DIO mice", "experiment": "Long-term administration on DIO mice: serum metabolic parameters (NEFA, TCHO, TG, insulin)", "format": "in vivo, C57BL16 mice", "settings": "30 mg/kg, end of long-term administration", "source_text": "Experimental animals: […] Table 18 was a total data table of the metabolic parameters."}, "[6]": {"system": "DIO mice", "experiment": "Long-term administration on DIO mice: fasting blood glucose", "format": "in vivo", "settings": "for Fasting blood glucose: 30 mg/kg daily intragastric", "method": "as §3, §4, §5"}, "[7]": {"experiment": "XRPD of phosphate crystal form A after heating", "format": "physicochemical", "settings": "heated for 48 h at 50° C.", "source_text": "After detection, the obtained solid was the crystal form A of phosphate, its XRPD data was shown in Table 9 below, its XRPD pattern was shown in FIG. 4, and its TGA chart and DSC chart were shown in FIG. 5. […] (peak temperatures) before decomposition."}},
  "note": "Where “and” joins values, the source holds several entries; their conditions need not be identical. Equal entries are not always repeated.",
  "data": [
    {"smiles": "C[C@@H]1c2cnc(C(F)(F)F)n2CCN1C(=O)C[C@H](N)Cc1cc(F)c(F)cc1F", "note": "[Example 1, (8R)-7-[(3R)-3-amino-1-oxo-4-(2,4,5-trifluorophenyl)butyl]-5,6,7,8-tetrahydro-8-methyl-3-(trifluoromethyl)imidazo[1,5-a]pyrazine]", "values": [
      {"measurement": "solubility", "setting": "[1]; 1,4-Dioxane, organic solvent or mixture", "result": "2.7 to 2.9", "unit": "mg/mL"},
      {"measurement": "solubility", "setting": "[1]; 2-MeTHF, organic solvent or mixture", "result": "38.3 to 57.5", "unit": "mg/mL"},
      {"measurement": "solubility", "setting": "[1]; ACN, organic solvent or mixture", "result": "57.5 to 115", "unit": "mg/mL"},
      {"measurement": "solubility", "setting": "[1]; Acetic acid, organic solvent or mixture", "result": "< 54", "unit": "mg/mL"},
      {"measurement": "solubility", "setting": "[1]; Acetone, organic solvent or mixture", "result": "47.5 to 95", "unit": "mg/mL"},
      {"measurement": "solubility", "setting": "[1]; CHCl3, organic solvent or mixture", "result": "< 1.3", "unit": "mg/mL"},
      {"measurement": "solubility", "setting": "[1]; DCM, organic solvent or mixture", "result": "< 1.1", "unit": "mg/mL"},
      {"measurement": "solubility", "setting": "[1]; DMF, organic solvent or mixture", "result": "< 42", "unit": "mg/mL"},
      {"measurement": "solubility", "setting": "[1]; DMSO, organic solvent or mixture", "result": "46 to 115", "unit": "mg/mL"},
      {"measurement": "solubility", "setting": "[1]; EtOAc, organic solvent or mixture", "result": "< 1.1", "unit": "mg/mL"},
      {"measurement": "solubility", "setting": "[1]; EtOH, organic solvent or mixture", "result": "57.5 to 115", "unit": "mg/mL"},
      {"measurement": "solubility", "setting": "[1]; Heptane, organic solvent or mixture", "result": "< 1.3", "unit": "mg/mL"},
      {"measurement": "solubility", "setting": "[1]; Hexane, organic solvent or mixture", "result": "< 1.2", "unit": "mg/mL"},
      {"measurement": "solubility", "setting": "[1]; IPA, organic solvent or mixture", "result": "38.3 to 57.5", "unit": "mg/mL"},
      {"measurement": "solubility", "setting": "[1]; IPAc, organic solvent or mixture", "result": "< 1.1", "unit": "mg/mL"},
      {"measurement": "solubility", "setting": "[1]; MEK, organic solvent or mixture", "result": "72.5 to 145", "unit": "mg/mL"},
      {"measurement": "solubility", "setting": "[1]; MIBK, organic solvent or mixture", "result": "< 1", "unit": "mg/mL"},
      {"measurement": "solubility", "setting": "[1]; MTBE, organic solvent or mixture", "result": "< 0.9", "unit": "mg/mL"},
      {"measurement": "solubility", "setting": "[1]; MeOH, organic solvent or mixture", "result": "67.5 to 135", "unit": "mg/mL"},
      {"measurement": "solubility", "setting": "[1]; NMP, organic solvent or mixture", "result": "20 to 40", "unit": "mg/mL"},
      {"measurement": "solubility", "setting": "[1]; THF, organic solvent or mixture", "result": "46 to 115", "unit": "mg/mL"},
      {"measurement": "solubility", "setting": "[1]; Toluene, organic solvent or mixture", "result": "< 1", "unit": "mg/mL"},
      {"measurement": "solubility", "setting": "[1]; cyclohexanol, organic solvent or mixture", "result": "< 1", "unit": "mg/mL"},
      {"measurement": "solubility", "setting": "[1]; isoamyl alcohol, organic solvent or mixture", "result": "10 to 13.3", "unit": "mg/mL"},
      {"measurement": "solubility", "setting": "[1]; isobutyl alcohol, organic solvent or mixture", "result": "3.8 to 4.7", "unit": "mg/mL"},
      {"measurement": "solubility", "setting": "[1]; n-amyl alcohol, organic solvent or mixture", "result": "6.8 to 8.5", "unit": "mg/mL"},
      {"measurement": "solubility", "setting": "[1]; n-butyl alcohol, organic solvent or mixture", "result": "60 to 120", "unit": "mg/mL"},
      {"measurement": "solubility", "setting": "[1]; organic solvent or mixture, 1- Octanol", "result": "< 0.9", "unit": "mg/mL"},
      {"measurement": "solubility", "setting": "[1]; sec-butyl alcohol, organic solvent or mixture", "result": "< 1", "unit": "mg/mL"},
      {"measurement": "solubility", "setting": "[1]; water, H2O", "result": "21 to 42", "unit": "mg/mL"}
    ]},
    {"smiles": "N[C@@H](CC(=O)N1CCn2c(nnc2C(F)(F)F)C1)Cc1cc(F)c(F)cc1F", "note": "[Sitagliptin phosphate, reference compound]", "values": [
      {"measurement": "concentration at 1 h", "setting": "[2]; 1 hour", "result": "184 ± 10.2", "unit": "ng/mL"},
      {"measurement": "concentration at 1.33 h", "setting": "[2]; 1.33 hours", "result": "159 ± 46.6", "unit": "ng/mL"},
      {"measurement": "concentration at 1.67 h", "setting": "[2]; 1.67 hours", "result": "152 ± 15.1", "unit": "ng/mL"},
      {"measurement": "concentration at 2 h", "setting": "[2]; 2 hours", "result": "142 ± 19.6", "unit": "ng/mL"},
      {"measurement": "concentration at 3 h", "setting": "[2]; 3 hours", "result": "97.9 ± 35.5", "unit": "ng/mL"},
      {"measurement": "AUC", "setting": "[2]; read-out: Drug exposure (AUCeff0-3 h)", "result": 370, "unit": "ng·h/mL"},
      {"measurement": "Food intake", "setting": "[3]; 30 mg/kg", "result": "2.2 ± 5.0", "unit": "g/day"},
      {"measurement": "weight", "setting": "[3]; 30 mg/kg daily, D1", "result": "37.2 ± 4.4", "unit": "g"},
      {"measurement": "weight", "setting": "[3]; 30 mg/kg daily, D7", "result": "35.3 ± 3.7", "unit": "g"},
      {"measurement": "weight", "setting": "[3]; 30 mg/kg daily, D14", "result": "34.4 ± 4.9", "unit": "g"},
      {"measurement": "weight", "setting": "[3]; 30 mg/kg daily, D21", "result": "37.2 ± 5.3", "unit": "g"},
      {"measurement": "weight", "setting": "[3]; 30 mg/kg daily, D28", "result": "39.5 ± 5.0", "unit": "g"},
      {"measurement": "weight", "setting": "[3]; 30 mg/kg, total data table of metabolic parameters (end of experiment)", "result": "39.5 ± 5.0", "unit": "g"},
      {"measurement": "weight after the drug was administrated for 28 days", "setting": "[3]; individual animals, 30 mg/kg", "result": "39.9 (2×) and 31.0 and 34.8 and 41.6 and 32.2 and 40.5 and 40.8 and 45.6 and 47.1 and 41.0"},
      {"measurement": "weight", "setting": "[4]", "result": "24.0 (3×) and 26.0 (2×) and 25.1 (2×) and 25.0 and 24.6 (2×) and 24.4 and 24.3 and 22.9 and 22.2 and 26.5"},
      {"measurement": "decrease of insulin compared with the model control group", "setting": "[5]", "result": 58.3, "unit": "%"},
      {"measurement": "decrease of total cholesterol (TCHO) compared with the model control group", "setting": "[5]", "result": 25.4, "unit": "%"},
      {"measurement": "Serum NEFA", "setting": "[5]; fasted overnight", "result": "1.11 ± 0.13", "unit": "mmol/L"},
      {"measurement": "Serum TCHO", "setting": "[5]; fasted overnight", "result": "3.99 ± 0.798", "unit": "mmol/L"},
      {"measurement": "Serum TG", "setting": "[5]; fasted overnight", "result": "0.94 ± 0.15", "unit": "mmol/L"},
      {"measurement": "Serum insulin", "setting": "[5]; fasted overnight", "result": "2.2 ± 1.38", "unit": "ng/mL"},
      {"measurement": "Fasting blood glucose", "setting": "[6]; D 1", "result": "8.3 ± 1.1", "unit": "mmol/L"},
      {"measurement": "Fasting blood glucose", "setting": "[6]; D 3", "result": "6.8 ± 1.1", "unit": "mmol/L"},
      {"measurement": "Fasting blood glucose", "setting": "[6]; D 7", "result": "8.0 ± 1.2", "unit": "mmol/L"},
      {"measurement": "Fasting blood glucose", "setting": "[6]; D 14", "result": "8.5 ± 1.3", "unit": "mmol/L"},
      {"measurement": "Fasting blood glucose", "setting": "[6]; D 21", "result": "8.9 ± 0.9", "unit": "mmol/L"},
      {"measurement": "Fasting blood glucose", "setting": "[6]; D 28", "result": "8.6 ± 0.9", "unit": "mmol/L"},
      {"measurement": "fasting blood glucose data after the drug was administrated for 28 days", "setting": "[6]; individual animals, 30 mg/kg", "result": "8.9 and 8.3 and 8.4 and 7.8 and 9.1 and 8.2 and 9.8 and 7.9 (2×) and 8 and 10.8"}
    ]},
    {"smiles": "C[C@@H]1c2cnc(C(F)(F)F)n2CCN1C(=O)C[C@H](N)Cc1cc(F)c(F)cc1F", "note": "[phosphate crystal form A, (8R)-7-[(3R)-3-amino-1-oxo-4-(2,4,5-trifluorophenyl)butyl]-5,6,7,8-tetrahydro-8-methyl-3-(trifluoromethyl)imidazo[1,5-a]pyrazine]", "values": [
      {"measurement": "crystal form after heating (XRPD)", "setting": "[7]", "result": "transformed into a phosphate crystal form B"}
    ]}
  ]
}
